Like-named read-outs stand apart in the source and are kept apart here.
Columns and labels:
Assay type in all cases: binding
[1] = biological target: ER-β (Homo sapiens, UniProt Q92731); experiment: Microplate thermal shift assay (Thermofluor) of ER-β with ligands and co-regulators; details: for Change in Tm stabilization from the receptor-ligand ΔTm in the presence of SRC-1 NR2 / Change in Tm stabilization from the receptor-ligand ΔTm in the presence of SRC-3 NR2 / Change in Tm stabilization from the receptor-ligand ΔTm in the presence of SRC-3 / Change in Tm stabilization from the receptor-ligand ΔTm in the presence of NCoR1 / Observed ΔTm stabilization, ligand alone / ΔTm at 11 µM: ER-β 8 μM, ligand 20 μM; for Change in Tm stabilization from the receptor-ligand ΔTm in the presence of SRC-1 NR2: co-activator peptide SRC1—NR2; for Change in Tm stabilization from the receptor-ligand ΔTm in the presence of SRC-3 NR2: co-activator peptide SRC3—NR2; for Change in Tm stabilization from the receptor-ligand ΔTm in the presence of SRC-3 / ΔTm at 11 µM: co-activator protein SRC-3 11 μM; for Change in Tm stabilization from the receptor-ligand ΔTm in the presence of NCoR1: co-repressor peptide NCoR-1; for Observed ΔTm stabilization, ligand alone: no co-regulator, average of four experiments; for ΔTm at 11 µM: read-out: Change in Tm stabilization from the receptor-ligand ΔTm in the presence of SRC-3
Chain of ER-β (Q92731 whole entry, species assumed): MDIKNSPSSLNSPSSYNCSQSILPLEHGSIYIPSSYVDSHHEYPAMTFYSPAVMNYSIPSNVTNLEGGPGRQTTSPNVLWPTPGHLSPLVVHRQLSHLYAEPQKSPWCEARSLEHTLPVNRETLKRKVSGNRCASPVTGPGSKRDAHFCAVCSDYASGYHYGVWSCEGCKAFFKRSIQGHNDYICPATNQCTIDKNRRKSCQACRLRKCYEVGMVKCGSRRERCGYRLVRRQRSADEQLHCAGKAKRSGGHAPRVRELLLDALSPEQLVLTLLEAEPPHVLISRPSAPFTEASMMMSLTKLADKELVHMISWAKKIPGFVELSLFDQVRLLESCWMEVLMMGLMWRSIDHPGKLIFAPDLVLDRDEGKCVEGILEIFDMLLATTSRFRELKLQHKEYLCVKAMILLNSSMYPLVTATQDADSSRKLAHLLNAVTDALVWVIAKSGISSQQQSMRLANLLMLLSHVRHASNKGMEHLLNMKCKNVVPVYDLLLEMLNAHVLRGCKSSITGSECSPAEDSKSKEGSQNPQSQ
Method: (§1) A 2 μL ligand solution at 2 times the final concentration was dispensed with a micropipette into a 384 well black wall Greiner plate. Then, 2 μL of the protein dye solution was dispensed on top of the ligand solution in the 384 well plate. The plates were spun to ensure mixing of the protein-dye and ligand solutions followed by layering of 1 μL of silicone oil to prevent evaporation during heating of the samples.

[2] = biological target: T1, ER-α (Homo sapiens, UniProt P03372); experiment: Microplate thermal shift assay (Thermofluor) of ER-α with ligands and co-regulators
T1 sequence (P03372 1-595): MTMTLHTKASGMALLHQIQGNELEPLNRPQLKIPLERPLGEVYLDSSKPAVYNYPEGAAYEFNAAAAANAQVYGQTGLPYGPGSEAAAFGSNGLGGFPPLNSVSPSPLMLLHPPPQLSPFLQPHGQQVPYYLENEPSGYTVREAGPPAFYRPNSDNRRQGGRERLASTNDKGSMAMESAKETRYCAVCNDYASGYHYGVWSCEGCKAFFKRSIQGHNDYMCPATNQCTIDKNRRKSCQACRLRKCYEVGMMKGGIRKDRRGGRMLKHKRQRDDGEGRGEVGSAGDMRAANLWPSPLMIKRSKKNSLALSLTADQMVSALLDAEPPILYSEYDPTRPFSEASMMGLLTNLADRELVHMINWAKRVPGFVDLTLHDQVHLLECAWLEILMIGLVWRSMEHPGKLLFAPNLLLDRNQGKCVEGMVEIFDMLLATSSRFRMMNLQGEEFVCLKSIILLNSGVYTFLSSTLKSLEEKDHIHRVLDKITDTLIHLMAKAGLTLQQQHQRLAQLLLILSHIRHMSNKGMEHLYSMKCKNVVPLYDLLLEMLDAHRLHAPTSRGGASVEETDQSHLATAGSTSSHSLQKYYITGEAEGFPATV
Method: as §1

[3] = biological target: T1, ER-α; experiment: Microplate thermal shift assay (Thermofluor) of ER-α against a panel of steroid ligands
Method: The concentration of ER-α in all of the experiments was 8 μM and the ligand concentration was 20 μM.
A 2 μL ligand solution at 2 times the final concentration was dispensed with a micropipette into a 384 well black wall Greiner plate. Then, 2 μL of the protein dye solution was dispensed on top of the ligand solution in the 384 well plate. The plates were spun to ensure mixing of the protein-dye and ligand solutions followed by layering of […], of silicone oil to prevent evaporation during heating of the samples.

[4] = ER-α 8 μM, ligand 20 μM, average of four experiments, in °C (unit assumed)
[5] = ER-α 8 μM, ligand 20 μM, average of four experiments

Question: “17-α-ethyleneestradiol [17-α-ethylen-E2]” was tested. Which “Change in Tm stabilization from the receptor-ligand ΔTm in the presence of SRC-1 NR2” value [1] did it give?
Answer: Its value is 2.6.

Question: What about the “Change in Tm stabilization from the receptor-ligand ΔTm in the presence of SRC-3 NR2” value [1] of the same compound?
Answer: The value was 2.6.

Question: And the “Change in Tm stabilization from the receptor-ligand ΔTm in the presence of SRC-3” value [1]?
Answer: Its value is 1.6.

Question: And the “Change in Tm stabilization from the receptor-ligand ΔTm in the presence of NCoR1” value [1]?
Answer: Its value is −0.1.

Question: And the “Observed ΔTm stabilization, ligand alone” value [1]?
Answer: The value was 15.0.

Question: How did the Observed ΔTm stabilization by co-regulator alone (no ligand) ([2]; ER-α 8 μM, no ligand, SRC-3 11 μM, peptides 100 XM) turn out when SRC-3: co-activator protein SRC-3 was run?
Answer: Its Observed ΔTm stabilization by co-regulator alone (no ligand) is 0.5 °C.

Question: And the “Preferential recruitment of co-activator, ER-α vs. ER-β” value ([2]; in the presence of estrogen-like ligands, result in words)?
Answer: The value was “preferentially recruited”.

Question: For `C[C@]12CC[C@@H]3c4ccc(O)cc4C[C@@H](CCCCCCCCC[S+]([O-])CCCC(F)(F)C(F)(F)F)[C@H]3[C@@H]1CC[C@@H]2O` (stereo partly shown) [ICI-182780], which ΔTm at 11 µM [1] is on record?
Answer: The ΔTm at 11 µM was 0.6 °C.

Question: What about the “Observed ΔTm stabilization, ligand alone” value [1] of the same compound?
Answer: The value was 13.6.

Question: And the “Additional stabilization / ability to recruit co-activators in the presence of co-activator protein/peptide” value ([1]; ER-β, result in words)?
Answer: Its value is “no ability to recruit co-activators”.

Question: What about the ΔTm at 11 µM ([2]; ER-α 8 μM, ligand 20 μM, co-activator protein SRC-3 11 μM, read-out: Change in Tm stabilization from the receptor-ligand ΔTm in the presence of SRC-3) of the same compound?
Answer: Its ΔTm at 11 µM is 0 °C.

Question: And the “Additional stabilization / ability to recruit co-activators in the presence of co-activator protein/peptide” value ([2]; ER-α, result in words)?
Answer: The value was “no ability to recruit co-activators”.

Question: `COc1cc2c(cc1O)CC[C@@H]1[C@@H]2CC[C@]2(C)[C@@H](O)CC[C@@H]12` [2-methoxy-E2, 2-methoxyestradiol] was tested. Which “Change in Tm stabilization from the receptor-ligand ΔTm in the presence of SRC-1 NR2” value [1] did it give?
Answer: The value was 4.4.

Question: And the “Change in Tm stabilization from the receptor-ligand ΔTm in the presence of SRC-3 NR2” value [1]?
Answer: Its value is 4.4.

Question: And the “Change in Tm stabilization from the receptor-ligand ΔTm in the presence of SRC-3” value [1]?
Answer: Its value is 2.2.

Question: And the “Change in Tm stabilization from the receptor-ligand ΔTm in the presence of NCoR1” value [1]?
Answer: Its value is −0.7.

Question: What about the “Observed ΔTm stabilization, ligand alone” value [1] of the same compound?
Answer: Its value is 1.5.

Question: What about the ΔTm [3, 4] of the same compound?
Answer: The ΔTm was 5.98.

Question: And the “Ligand function for ER-α (agonist or antagonist)” value ([3]; interpretation if ligands had been screened against co-regulators as in Example 1)?
Answer: The value was “agonists”.

Question: What about the “Change in Tm stabilization from the receptor-ligand ΔTm in the presence of NCoR1” value ([2]; ER-α 8 μM, ligand 20 μM, co-repressor peptide NCoR-1) of the same compound?
Answer: The value was −0.3.

Question: What about the “Observed ΔTm stabilization, ligand alone” value ([2]; ER-α 8 μM, ligand 20 μM, no co-regulator, average of four experiments) of the same compound?
Answer: Its value is 1.8.

Question: `C[C@]12C[C@H](O)[C@H]3[C@@H](CCC4=CC(=O)CC[C@@]43C)[C@@H]1CC[C@@H]2C(=O)CO` [corticosterone] was tested. Which ΔTm [3, 5] did it give?
Answer: The ΔTm was −0.27.

Question: `CC(=O)[C@H]1CC[C@H]2[C@@H]3CCC4=CC(=O)CC[C@]4(C)[C@H]3CC[C@]12C` [progesterone] was tested. Which ΔTm [3, 5] did it give?
Answer: Its ΔTm is −0.19.

Question: 4-hydroxytamoxifen [4-OH-tamoxifen] was tested. Which “Ligand function for ER-α (agonist or antagonist)” value [3] did it give?
Answer: Its value is “antagonist”.

Question: And the ΔTm ([3]; in °C (unit assumed))?
Answer: The ΔTm was 19.99.

Question: `C[C@@]12CCC[C@H]1[C@@H]1CCC3=CCCC[C@]3(C)[C@H]1CC2` [4-androstene] was tested. Which ΔTm [3, 5] did it give?
Answer: The ΔTm was −0.23.

Question: How did the ΔTm at 11 µM [1] turn out when `C[C@]12CC[C@@H]3c4ccc(O)cc4CC[C@H]3[C@@H]1CC[C@@H]2O` [Estradiol, β-estradiol] was run?
Answer: Its ΔTm at 11 µM is 1.1 °C.

Question: With `C[C@]12CCC(=O)C=C1CC[C@@H]1[C@@H]2C(=O)C[C@@]2(C)[C@H]1CC[C@]2(O)C(=O)CO` [cortisone] as the compound, how does the ΔTm [3, 4] read?
Answer: Its ΔTm is 0.01.
